Data: US8501791B2, “1,2,4-thiadiazolium derivatives as melanocortin receptor modulators” (Ortho-McNeil Pharamaceutical, Inc., priority 2001, dated 2013)
Where “and” joins values, the source holds several entries; their conditions need not be identical. Identical values can stand only once.

Key:
[1] = target: T1, melanocortin MC-4 receptor (Homo sapiens, UniProt P32245); assay: Melanocortin MC-4 Receptor Binding Assay (SPA); conditions: 125I-NDP-melanocyte stimulating hormone
T1 construct: purchased Receptor Biology Inc
Protocol: Radioactive ligand ^125I-NDP-melanocyte stimulating hormone [NEN, 2000 Ci/mmol] was added to each well (48.54 per well, […] final concentration). The plate was then sealed and let stand for 16 hr at 25° C. NDP-Melanocyte stimulating hormone peptide and α-melanocyte stimulating hormone peptide [purchased from Palomar Research Inc, 1 μM] were used as reference inhibitor compounds to define non-specific binding (N). Total binding (T) was defined using 30% DMSO-50 mM HEPES, pH 7.4 buffer. Bound radioactivity for each well (Y), measured at counts per minute (cpm) was measured in a TopCount [Packard, Calif.]. Percent inhibition was calculated as: […]

[2] = system: Food-Deprived Rats (MC-4); assay: Rodent feeding: food intake in food-deprived rats (MC-4); assay type: in vivo, rat; conditions: 10 mg/kg, ip
Protocol: Male Long-Evans rats (180-200 grams) were housed individually and maintained on a once-a-day feeding schedule (i.e. 10 a.m. until 4 p.m.) for five days following quarantine to allow the animals to acclimate to feeding on powdered chow (#5002 PMI Certified Rodent Meal) during the allotted time. The chow was made available in an open jar, anchored in the cage by a wire, with a metal follower covering the food to minimize spillage. Water was available ad-libitum.
Animals were fasted for 18 hours prior to testing. At the end of the fasting period, animals were administered either a test compound or vehicle. Vehicle and test compound were administered either orally (5 mL/kg) 60 minutes prior to the experiment, subcutaneously (1 mL/kg) 30 minutes prior to the experiment, or intraperitoneally (1 mL/kg) 30 minutes prior to the experiment. Test compounds were administered orally as a suspension in aqueous 0.5% methylcellulose-0.4% Tween 80, or intraperitoneally as a solution or suspension in PEG 200; compound concentrations typically ranged from 1 mg/kg to 100 mg/kg, preferably from 10-30 mg/kg. Food intake was measured at 2, 4, and 6 hours after administration by weighing the special jar containing the food before the experiment and at the specified times. Upon completion of the experiment, all animals were given a one-week washout period before re-testing.

human sebocytes = assay: Sebaceous lipid synthesis by sebaceous cells (14C acetate, HPTLC); assay type: cell-based; conditions: seven day treatment
Protocol: Semiconfluent cultures of 3T3 mouse fibroblasts (Swiss Albino mouse, ATCC CCL-92) were treated with mitomycin C (4 μg/ml) for 3 hours, trypsinized and seeded at a density of 2.5×10^5/9.5 cm^2 tissue culture plate in Dulbeccos Minimal Essential Medium (DMEM) containing 10% Colorado Calf Serum, PNC (100 U/ml), STM (100 μg/ml), L glutamine (0.3 mg/ml), sodium pyruvate (1 mM) and nonessential amino acids (100 μM). The cells were incubated at 37° C. for 24 hours prior to their use as a feeder layer for sebocytes.
Human sebocytes were isolated from Dermatome shavings of postoperative pieces of human skin at 0.4-0.8 mm depths (this part of the skin was previously shown to be enriched in sebaceous glands). […] Cells so obtained were filtered through nylon mesh (100μ pore size), centrifuged at 750 RPM, re-suspended in GM and counted. […]
Hormones, mixture of hormones i.e. bovine pituitary extract or compounds to be tested were added to the culture at the beginning of phase III. […] This method relies on visualization of neutral lipids by Nile red and quantitation by reading of fluorescence at 535 nm excitation, 580 nm emission using a plate reader. The lipid synthesis was evaluated by radioactive labeling using ^14C acetate and quantified by Bio Rad Phosphoimager (Molecular Imager, FX) using 4.1 Software. […]

[3] = system: human skin transplanted to the SCID mouse; assay: Human skin-SCID mouse chimera model, sebum production; assay type: in vivo, SCID mouse with human skin graft
From the text: Severe combined immunodeficient mice (SCID) provide an invaluable model for skin xenografting. These animals are devoid of both T and B cell immunity. Human skin grafts in SCID mice retain human cellular tissue components including skin immune cells, i.e. Langerhans cells, macrophages and lymphocytes and also part of the engrafted endothelium (Kaufman R., et al., Exp. Dermatol. 1993:2:209-216, 1993). These properties allow for the study of physiological and/or pathological responses of human skin cells to a test compound.
C.B-17 scid/scid mice (Taconic, Germantown, N.Y.) were used for grafting at 5-6 weeks of age. Full thickness human facial skin was shaved to ˜0.4 mm using a Forman Dermatome. The skin shavings were washed 3 times in antibiotics and antimycotics (penicillin, streptomycin, fungizone) (Life technologies) in Dulbecco's Modified Eagle Medium (DMEM, Life Technologies). Elliptical skin ˜2.0-2.5×1.0-1.5 was grafted onto the prepared graft bed and sutured using 4.0 silk. During surgical procedures the mice were anaesthetized using a mixture of Ketaset (0.16 mg/g body weight) and Rompun (8.0 μg/g body weight).
It is well accepted that the wound healing process of the transplanted skin in the SCID mouse takes one month, at which time the human skin can be used for experimental purposes. […] Maximum size of the glands was observed 3 month post transplantation. The glands retained their capability to produce human specific sebum and the glandular tissue expressed human specific markers including MC5-R. Since glands reached their maximum size at 2-3 month post transplantation the effects of inhibitors of sebum secretion was tested at this point.
Mice at 2-3 month post transplantation with human facial skin were used for the studies. The graft area was treated with the test compound at the desired concentration(s) dissolved in polyethylene glycol-ethanol (20 μl/2 cm^2). Controls were treated with vehicle alone. The test compounds were applied daily, excluding weekends. Sebum secretion was determined using Sebutape at 15 days and 30 days following treatment.
The termination of the experiment was determined by preliminary clinical evaluation of sebum production using SEBUTAPE. At this time human skin grafts were excised and representative samples were collected for histological evaluation. More particularly, 2 mm punch biopsies were prepared and used for evaluation of lipid synthesis and total lipid accumulation in the treated tissues.
The collected 2 mm punch biopsies were placed individually into 96 well plates in Krebs buffer and labeled with 10 μCi of ^14C acetate for 3 hours. Following this labeling period the samples were washed in medium and 5 biopsies pooled, weighed, and used for lipid extraction. The lipid extraction and analysis by HPTLC was the same as described for tissue culture derived cells. […]

rabbit adipocytes = conditions: read-out: EC50 lipolytic activity; cited from earlier work
[4] = system: facial nerve compression, whisker movement; assay: In vivo facial nerve compression model; design: species or system rat; conditions: positive control s.c., 70 ug/each 48 hr
From the text: The ability of test compound to provide neuro-protective or neuro-regenerative effects was investigated in a facial nerve compression model. Facial nerve motor axons arise exclusively from neurons within the pons in a well-defined nucleus. Facial nerve compression results in retrograde reactions proximal to the lesion site and Wallerian degeneration at its distal part, which causes diminished whisker movement on the lesioned side. […] The right facial nerve was exposed and compressed with forceps for 30 sec at its exit from the stylomastoid foramen. The left facial nerve was sham-operated and served as an internal control. […] After recovery from anesthesia, the rats were randomly divided into groups for dosing with vehicle, αMSH or test compound, with 6 animals per group. αMSH (s.c., 70 ug/each 48 hr) was used as a positive control. Test compounds were dosed p.o. at 20 mg/kg bid for 14 days. Restoration of whisker movement was monitored daily after the operation using two criteria: (1) frequency of whisker movement on the lesioned side relative to the opposite side (sham-operated) which served as the baseline control (2) semi-quantitative measurements (0 to 4+) on strength of the whisker muscles, characterized based on observation of the percentage of moved whiskers, muscle tone of whisker muscles, and the position of the nose. For all observations, the experimental design was blind to the behavioral observer. […] The recovery rate of the whisker movement was expressed as percentage of its own internal control (sham-operated), as listed in Table 8.

[5] = 30 Day Treatment, topical 0.01%
[6] = 30 Day Treatment, topical 0.05%
[7] = human sebaceous lipids, 11 Day Treatment, topical 0.01%
[8] = human sebaceous lipids, 11 Day Treatment, topical 0.1%
[9] = human sebaceous lipids, 11 Day Treatment, topical 0.5%

T1 sequence (P32245 whole entry): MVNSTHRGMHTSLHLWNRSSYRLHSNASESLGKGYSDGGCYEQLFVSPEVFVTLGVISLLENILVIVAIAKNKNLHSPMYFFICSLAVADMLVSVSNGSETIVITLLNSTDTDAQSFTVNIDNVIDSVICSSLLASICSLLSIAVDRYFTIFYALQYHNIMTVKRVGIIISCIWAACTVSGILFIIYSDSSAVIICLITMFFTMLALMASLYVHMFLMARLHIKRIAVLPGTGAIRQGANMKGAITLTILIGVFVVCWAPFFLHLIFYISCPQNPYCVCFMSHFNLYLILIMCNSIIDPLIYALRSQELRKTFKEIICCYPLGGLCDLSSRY

COc1ccccc1-[n+]1sc(Nc2ccc(Cl)cc2)nc1-c1ccc(C)cc1 [Compound 70]
IC50 [1]: 566 nM

c1ccc(CNc2nc(-c3ccccc3)[n+](-c3ccccc3)s2)cc1 [Compound 84]
Change in Food Intake 2-6 hrs (%) [2]: −24.5% and −17.8%

COc1ccccc1-c1nc(Nc2ccccc2)s[n+]1-c1ccccc1OC.[Br-] [Compound 74, 2-(2-methoxyphenyl)-3-(2-methoxyphenyl)-5-phenylamino-[1,2,4]-thiadiazol-2-ium]
lipid synthesis, radioactively labeled lipids separated by HPTLC (human sebocytes): inhibition of squalene, cholesterol esters and wax esters
lipid granules in sebocyte cultures, visual (human sebocytes; stained cell cultures): complete disappearance of lipid granules
% Inh @ 0.01% Cholesterol Ester, Lipid Accumulation [3, 5]: 44%
% Inh @ 0.01% Cholesterol, Lipid Accumulation [3, 5]: 33%
% Inh @ 0.01% Cholesterol, Sebaceous Lipid Synthesis [3, 5]: 33%
% Inh @ 0.01% Squaline, Lipid Accumulation [3, 5]: 82%
% Inh @ 0.01% Squaline, Sebaceous Lipid Synthesis [3, 5]: 80%
% Inh @ 0.01% Triglycerides, Lipid Accumulation [3, 5]: 75%
% Inh @ 0.01% Triglycerides, Sebaceous Lipid Synthesis [3, 5]: 75%
% Inh @ 0.01% Wax Esters, Lipid Accumulation [3, 5]: 86%
% Inh @ 0.01% Wax Esters, Sebaceous Lipid Synthesis [3, 5]: 86%
% Inh @ 0.05% Cholesterol Ester, Lipid Accumulation [3, 6]: 21%
% Inh @ 0.05% Cholesterol, Lipid Accumulation [3, 6]: 82%
% Inh @ 0.05% Cholesterol, Sebaceous Lipid Synthesis [3, 6]: 82%
% Inh @ 0.05% Squaline, Lipid Accumulation [3, 6]: 73%
% Inh @ 0.05% Squaline, Sebaceous Lipid Synthesis [3, 6]: 90%
% Inh @ 0.05% Triglycerides, Lipid Accumulation [3, 6]: 90%
% Inh @ 0.05% Triglycerides, Sebaceous Lipid Synthesis [3, 6]: 90%
% Inh @ 0.05% Wax Esters, Lipid Accumulation [3, 6]: 93%
% Inh @ 0.05% Wax Esters, Sebaceous Lipid Synthesis [3, 6]: 93%
total sebaceous lipid accumulation and de novo synthesis of sebaceous lipids ([3]; 30 days of topical treatment with 0.05% and 0.01% solution): significantly decreased
% Inh @ 0.01% Squalene [3, 7]: 0%
% Inh @ 0.01% Triglycerides [3, 7]: 0%
% Inh @ 0.01% W/E [3, 7]: 25%
% Inh @ 0.1% Squalene [3, 8]: 70%
% Inh @ 0.1% Triglycerides [3, 8]: 50%
% Inh @ 0.1% W/E [3, 8]: 80%
% Inh @ 0.5% Squalene [3, 9]: 0%
% Inh @ 0.5% Triglycerides [3, 9]: 0%
% Inh @ 0.5% W/E [3, 9]: 10%

α-MSH
EC50 (rabbit adipocytes): 0.0037 µM
Percent Recovery of whisker movement D9 ([4]; D9): 2.0 ± 2.8%
Percent Recovery of whisker movement D10 ([4]; D10): 24.6 ± 15.8%
Percent Recovery of whisker movement D11 ([4]; D11): 60.1 ± 19.3%
Percent Recovery of whisker movement D12 ([4]; D12): 93.8 ± 14.0%
Percent Recovery of whisker movement D13 ([4]; D13): 98.1 ± 5.3%
Percent Recovery of whisker movement D14 ([4]; D14): 100 ± 0.0%
